From ChEMBL document CHEMBL4184187, “Current knowledge on the nucleotide agonists for the P2Y2 receptor” (Bioorg Med Chem, 2018)

What was measured:
P2Y purinoceptor 2 [1] = target: T1, P2Y purinoceptor 2 (Homo sapiens, UniProt P41231); experiment: Agonist activity at human P2Y2 receptor expressed in 1321N1 cells assessed as [3H]-inositol phosphate accumulation measured after 90 mins by anion exchange chromatographic method; format: functional, cell-based
P2Y purinoceptor 2 [2] = target: T1, P2Y purinoceptor 2; experiment: Agonist activity at P2Y2 receptor (unknown origin); format: functional
P2Y purinoceptor 1 = P2Y purinoceptor 1 (Homo sapiens, UniProt P47900); experiment: Antagonist activity at P2Y1 receptor (unknown origin); format: functional
Chain of P2Y purinoceptor 1 (P47900 whole entry): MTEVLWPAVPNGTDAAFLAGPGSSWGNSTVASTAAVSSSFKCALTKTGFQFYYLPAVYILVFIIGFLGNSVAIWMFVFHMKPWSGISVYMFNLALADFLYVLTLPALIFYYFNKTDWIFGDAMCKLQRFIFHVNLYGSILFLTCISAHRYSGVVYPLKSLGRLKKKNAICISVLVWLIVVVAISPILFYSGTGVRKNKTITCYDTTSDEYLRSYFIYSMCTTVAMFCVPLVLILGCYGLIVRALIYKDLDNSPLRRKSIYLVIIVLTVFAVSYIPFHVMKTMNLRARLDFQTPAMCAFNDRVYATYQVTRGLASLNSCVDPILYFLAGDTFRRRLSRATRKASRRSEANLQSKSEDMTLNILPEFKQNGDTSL

P2Y purinoceptor 2 [3] = target: T1, P2Y purinoceptor 2; experiment: Agonist activity at P2Y2 receptor in NG108-15 cells (unknown origin); format: functional, cell-based
P2Y purinoceptor 2 [4] = target: T1, P2Y purinoceptor 2; experiment: Agonist activity at P2Y2 receptor in human CF/T43 cells; format: functional, cell-based
P2Y purinoceptor 2 [5] = target: T1, P2Y purinoceptor 2; experiment: Agonist activity at P2Y2 receptor in BEA cells (unknown origin); format: functional, cell-based

T1 sequence (P41231 whole entry): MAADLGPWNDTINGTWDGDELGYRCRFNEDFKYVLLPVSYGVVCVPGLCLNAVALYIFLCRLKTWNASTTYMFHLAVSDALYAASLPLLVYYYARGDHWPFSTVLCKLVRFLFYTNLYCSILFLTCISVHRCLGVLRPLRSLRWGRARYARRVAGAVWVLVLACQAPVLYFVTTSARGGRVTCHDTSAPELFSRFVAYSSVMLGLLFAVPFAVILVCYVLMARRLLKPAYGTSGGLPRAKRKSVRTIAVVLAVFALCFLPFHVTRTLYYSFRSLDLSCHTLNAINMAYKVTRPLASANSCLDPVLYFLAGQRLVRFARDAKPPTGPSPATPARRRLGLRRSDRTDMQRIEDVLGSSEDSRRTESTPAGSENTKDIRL

Structure (SMILES) | EC50 (P2Y purinoceptor 2 [1]) | also measured
O=c1[nH]c(=S)ccn1[C@@H]1O[C@H](COP(=O)(O)OP(=O)(O)OP(=O)(O)O)[C@@H](O)[C@H]1O | 710 nM | –
O=c1[nH]c(=O)n([C@@H]2O[C@H](COP(=O)(O)OP(=O)(O)OP(=O)(O)O)[C@@H](O)[C@H]2O)cc1Br | – | EC50 (P2Y purinoceptor 2 [2]): 220 nM
O=c1nc(N2CCOCC2)ccn1[C@@H]1O[C@H](COP(=O)(O)OP(=O)(O)OP(=O)(O)O)[C@@H](O)[C@H]1O | 10200 nM | –
C#CCNC(=O)COc1ccc(CCCO/N=c2\ccn([C@@H]3O[C@H](COP(=O)(O)OP(=O)(O)OP(=O)(O)O)[C@@H](O)[C@H]3O)c(=O)[nH]2)cc1 | 109 nM | –
CCCCCCOc1ccn([C@@H]2O[C@H](COP(=O)(O)OP(=O)(O)OP(=O)(O)O)[C@@H](O)[C@H]2O)c(=O)n1 | 489000 nM | –
CSc1ccn([C@@H]2O[C@H](COP(=O)(O)OP(=O)(O)OP(=O)(O)O)[C@@H](O)[C@H]2O)c(=O)n1 | 3100 nM | –
COc1ccn([C@@H]2O[C@H](COP(=O)(O)OP(=O)(O)OP(=O)(O)O)[C@@H](O)[C@H]2O)c(=O)n1 | 15500 nM | –
CNc1ncnc2c1ncn2[C@@H]1C[C@H](COP(=O)(O)O)[C@@H](OP(=O)(O)O)C1 | – | IC50 (P2Y purinoceptor 1): 148 nM
CCCCCCNc1ccn([C@@H]2O[C@H](COP(=O)(O)OP(=O)(O)OP(=O)(O)O)[C@@H](O)[C@H]2O)c(=O)n1 | 26300 nM | –
CN(C)c1ccn([C@@H]2O[C@H](COP(=O)(O)OP(=O)(O)OP(=O)(O)O)[C@@H](O)[C@H]2O)c(=O)n1 | 29800 nM | –
CCCCCCSc1ccn([C@@H]2O[C@H](COP(=O)(O)OP(=O)(O)OP(=O)(O)O)[C@@H](O)[C@H]2O)c(=O)n1 | 840 nM | –
Nc1ncnc2c1ncn2[C@@H]1O[C@H](COP(=O)(O)OP(=O)(O)OP(=O)(O)O)[C@@H](O)[C@H]1O [ADENOSINE TRIPHOSPHATE] | – | EC50 (P2Y purinoceptor 2 [3]): 180 nM; EC50 (P2Y purinoceptor 2 [4]): 200 nM; EC50 (P2Y purinoceptor 2 [5]): 200 nM
Nc1ccn([C@@H]2O[C@H](COP(=O)(O)OP(=O)(O)OP(=O)(O)O)[C@@H](O)[C@H]2O)c(=O)n1 [CYSTETINE TRIPHOSPHATE] | 37800 nM | –
O=c1ccn([C@@H]2O[C@H](COP(=O)(O)OP(=O)(O)OP(=O)(O)O)[C@@H](O)[C@H]2O)c(=O)[nH]1 [URIDINE TRIPHOSPHATE] | 120 nM | EC50 (P2Y purinoceptor 2 [3]): 1250 nM; EC50 (P2Y purinoceptor 2 [5]): 160 nM
